One experiment has as its target D(1A) dopamine receptor (Rattus norvegicus, UniProt P18901).
Experiment [1] has as its target T1, 5-hydroxytryptamine receptor 2C (Rattus norvegicus, UniProt P08909).
T1 sequence (P08909 whole entry): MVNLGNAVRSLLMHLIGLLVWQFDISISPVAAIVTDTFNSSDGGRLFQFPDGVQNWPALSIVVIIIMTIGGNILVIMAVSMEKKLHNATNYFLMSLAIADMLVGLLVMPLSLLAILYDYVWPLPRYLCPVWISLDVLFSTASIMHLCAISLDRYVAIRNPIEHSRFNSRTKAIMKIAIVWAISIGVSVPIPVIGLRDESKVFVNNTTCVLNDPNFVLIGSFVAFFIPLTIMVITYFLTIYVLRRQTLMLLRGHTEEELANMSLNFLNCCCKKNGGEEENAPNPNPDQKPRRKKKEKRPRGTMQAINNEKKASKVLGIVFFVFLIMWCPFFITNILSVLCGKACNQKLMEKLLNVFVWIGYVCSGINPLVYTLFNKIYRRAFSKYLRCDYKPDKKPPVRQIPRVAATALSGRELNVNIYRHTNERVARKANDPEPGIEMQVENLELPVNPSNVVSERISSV
In words: Inhibition of [3H]mesulergine binding to rat 5-hydroxytryptamine 2C receptor.

The next experiment addresses D(3) dopamine receptor (Homo sapiens, UniProt P35462). As to the kind of experiment: biochemical.
In experiment [2] the test system is Rattus norvegicus. In words: In vivo effective dose against catalepsy response was determined in rats. It is filed as functional.
For experiment [3], the species on record is Rattus norvegicus. As to the kind of experiment: animal or person.
Description: In vivo effective dose against conditioned avoidance response was determined in rats
Experiment [4] concerns Rattus norvegicus. In words: In vivo effective dose against 5-MeO-DMT-induced head twitches in rats was determined. It is filed as functional.
Experiment [5] relates to Rattus norvegicus. As to the kind of experiment: In vivo effective dose of compound against 5-MeO-DMT induced head twitches in rats. The experiment is classed as functional.
Experiment [6] concerns Rattus norvegicus. In words: In vivo effective dose was determined against apomorphine climbing in rats. The experiment is classed as functional.
The species entered for experiment [7] is Rattus norvegicus. As to the kind of experiment: animal or person. This is another data set of the same source.
Description: In vivo effective dose against spontaneous locomotor activity was determined in rats

Several values for one entry are separate records, joined by “and”; a condition that tells them apart may be missing. Identical values can stand only once.

Sequence of D(3) dopamine receptor (P35462 whole entry): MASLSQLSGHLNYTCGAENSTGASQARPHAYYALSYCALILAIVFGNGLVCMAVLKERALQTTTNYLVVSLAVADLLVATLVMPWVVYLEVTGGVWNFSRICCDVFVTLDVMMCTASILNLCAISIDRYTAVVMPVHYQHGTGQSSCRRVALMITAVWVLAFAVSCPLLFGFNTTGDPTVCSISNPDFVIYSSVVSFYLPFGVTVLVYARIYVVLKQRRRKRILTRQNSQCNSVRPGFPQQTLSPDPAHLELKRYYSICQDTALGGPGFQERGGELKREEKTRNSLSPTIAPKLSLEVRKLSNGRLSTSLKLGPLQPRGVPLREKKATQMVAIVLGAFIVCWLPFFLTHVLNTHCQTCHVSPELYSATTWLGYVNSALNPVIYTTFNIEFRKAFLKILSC
Sequence of D(1A) dopamine receptor (P18901 whole entry): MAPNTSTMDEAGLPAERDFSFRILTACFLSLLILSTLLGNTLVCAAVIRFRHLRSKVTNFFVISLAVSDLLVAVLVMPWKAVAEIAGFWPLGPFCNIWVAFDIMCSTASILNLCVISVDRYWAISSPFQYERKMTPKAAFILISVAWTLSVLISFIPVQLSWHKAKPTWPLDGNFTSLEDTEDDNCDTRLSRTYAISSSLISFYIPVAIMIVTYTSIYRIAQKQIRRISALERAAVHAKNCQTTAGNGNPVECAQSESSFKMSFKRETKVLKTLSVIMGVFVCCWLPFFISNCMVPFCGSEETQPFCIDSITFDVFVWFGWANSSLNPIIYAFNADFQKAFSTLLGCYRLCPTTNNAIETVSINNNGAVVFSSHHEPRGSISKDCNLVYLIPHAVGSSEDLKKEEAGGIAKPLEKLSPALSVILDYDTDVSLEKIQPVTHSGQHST
Description for D(1A) dopamine receptor: Inhibition of [3H]-SCH- 23390 binding to rat dopamine D1 receptor
Description for D(3) dopamine receptor: Inhibition of [3H]7-OH-DPAT binding to Dopamine D3 receptor expressed in Sf9 cells

`Cc1ccc2n1Cc1ccccc1C=C2N1CCN(C)CC1`: the Ki on D(1A) dopamine receptor worked out at 230 nM; in experiment [1], 15 nM; at D(3) dopamine receptor it was 88.6 nM.

Turning to `CN1CCN(C2=Cc3cc(Cl)ccc3Cn3cccc32)CC1`, the Ki at D(1A) dopamine receptor is 47.4 nM; in experiment [1] it was 3.8 nM; at D(3) dopamine receptor, 24.2 nM.

For the compound `CN1CCN(C2=Cc3ccccc3Cn3cccc32)CC1`, the ED50 in the experiment on Rattus norvegicus [2] was > 100 mg/kg and > 357 µmol/kg; in the experiment listed under Rattus norvegicus [3], 0.56 mg/kg and 2 µmol/kg; in the experiment on Rattus norvegicus [4] it was 0.43 µmol/kg; with Rattus norvegicus [5], 0.12 mg/kg; with Rattus norvegicus [6], 0.5 µmol/kg and 0.14 mg/kg; in the experiment filed under Rattus norvegicus [7], 1.6 mg/kg and 5.73 µmol/kg. Affinity on D(3) dopamine receptor was put at a Ki of 224 nM.

Turning to `CN1CCN(C2=Cn3cccc3Sc3sccc32)CC1`, the results for the Ki on D(1A) dopamine receptor and on D(3) dopamine receptor were 4.91 nM and 25 nM, respectively.

In the case of `CN1CCN(C2=Cn3cccc3Sc3ccccc32)CC1`, the ED50 is > 100 mg/kg and > 336 µmol/kg in the experiment on Rattus norvegicus [2]; 6.69 µmol/kg with Rattus norvegicus [4]; 1.99 mg/kg in the experiment on Rattus norvegicus [5]; 1.64 mg/kg and 5.51 µmol/kg in the experiment on Rattus norvegicus [6]; 0.51 mg/kg in the experiment listed under Rattus norvegicus [7].

Consider `CN1CCN(C2=Nc3cc(Cl)ccc3Nc3ccccc32)CC1` [CLOZAPINE], for which the ED50 with Rattus norvegicus [2] was > 100 mg/kg and > 306 µmol/kg; with Rattus norvegicus [4] it was 16.4 µmol/kg; in the experiment with Rattus norvegicus [5] it was 5.35 mg/kg; with Rattus norvegicus [6], 5.72 mg/kg and 17.5 µmol/kg.

(Values after ChEMBL document CHEMBL1144408, “Novel atypical antipsychotic agents: rational design, an efficient palladium-catalyzed route, and pharmacological studies” (J Med Chem, 2005).)
